Experimental data reported in ChEMBL document CHEMBL3414563, “Rational design of partial agonists for the muscarinic m1 acetylcholine receptor” (J Med Chem, 2015).
Active and inactive are the calls of the source. The calls are words filed in the database; no cut-off is given here.

Experiments:
[1] = biological target: T1, Muscarinic acetylcholine receptor M1 (Homo sapiens) (UniProt P11229); assay: Partial agonist activity at human muscarinic M1 acetylcholine receptor expressed in CHO cells assessed as increase in IP1 accumulation at 10 uM incubated for 30 mins in presence of 1 uM Gq protein inhibitor UBO-QIC by FRET based HTRF assay; format: functional, cell-based
T1 sequence (whole entry): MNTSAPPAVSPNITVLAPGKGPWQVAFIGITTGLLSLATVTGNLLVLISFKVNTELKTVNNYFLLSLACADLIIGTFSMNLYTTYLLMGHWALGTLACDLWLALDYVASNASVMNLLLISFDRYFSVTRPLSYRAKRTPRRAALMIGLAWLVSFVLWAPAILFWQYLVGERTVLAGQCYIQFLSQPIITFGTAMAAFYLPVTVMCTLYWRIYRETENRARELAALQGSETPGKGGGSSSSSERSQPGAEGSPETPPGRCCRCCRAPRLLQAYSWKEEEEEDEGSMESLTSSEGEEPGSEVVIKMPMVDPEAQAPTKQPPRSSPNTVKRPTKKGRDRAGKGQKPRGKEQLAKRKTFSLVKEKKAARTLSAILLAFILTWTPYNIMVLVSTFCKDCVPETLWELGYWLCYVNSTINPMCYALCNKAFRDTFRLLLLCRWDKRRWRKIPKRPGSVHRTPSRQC

[2] = biological target: T2, Muscarinic acetylcholine receptor M1 (Homo sapiens, UniProt P11229)
T2 sequence (P11229 whole entry): T1 sequence (whole entry)
Description: Partial agonist activity at human muscarinic M1 acetylcholine receptor expressed in CHO cells assessed as increase in IP1 accumulation incubated for 30 mins by FRET based HTRF assay

[3] = biological target: T2, Muscarinic acetylcholine receptor M1; assay: biochemical
[4] = biological target: T1, Muscarinic acetylcholine receptor M1 (Homo sapiens); assay: Partial agonist activity at human muscarinic M1 acetylcholine receptor expressed in CHO cells assessed as increase in IP1 accumulation at 0.3 uM incubated for 30 mins by FRET based HTRF assay relative to 100 uM acetylcholine; format: functional, cell-based
[5] = biological target: T1, Muscarinic acetylcholine receptor M1 (Homo sapiens); assay: Partial agonist activity at human muscarinic M1 acetylcholine receptor expressed in CHO cells assessed as increase in IP1 accumulation at 10 uM incubated for 30 mins in presence of 100 ng/ml Gi protein inhibitor PTX by FRET based HTRF assay; format: functional, cell-based
[6] = biological target: T1, Muscarinic acetylcholine receptor M1 (Homo sapiens); assay: Allosteric inhibition of [3H]NMS dissociation from human muscarinic M1 acetylcholine receptor expressed in CHO cell membranes by radioligand binding assay
[7] = biological target: T1, Muscarinic acetylcholine receptor M1 (Homo sapiens); assay: Allosteric inhibition of [3H]NMS dissociation rate constant k_1 from human muscarinic M1 acetylcholine receptor expressed in CHO cell membranes by radioligand binding assay; settings: concentration not given here
[8] = biological target: T1, Muscarinic acetylcholine receptor M1 (Homo sapiens); assay: Agonist activity at human muscarinic M1 acetylcholine receptor expressed in CHO cells assessed as increase in IP1 accumulation at 1 uM incubated for 30 mins by FRET based HTRF assay; format: functional, cell-based
[9] = biological target: T1, Muscarinic acetylcholine receptor M1 (Homo sapiens); assay: Partial agonist activity at human muscarinic M1 acetylcholine receptor expressed in CHO cells assessed as increase in IP1 accumulation at 10 uM incubated for 30 mins by FRET based HTRF assay; format: functional, cell-based
[10] = biological target: T1, Muscarinic acetylcholine receptor M1 (Homo sapiens); assay: Modulator activity at human muscarinic M1 acetylcholine receptor expressed in CHO cell membranes assessed as induction of left shift of acetylcholine-induced inhibition of [3H]NMS binding by radioligand binding assay
[11] = biological target: T1, Muscarinic acetylcholine receptor M1 (Homo sapiens); assay: Modulator activity at human muscarinic M1 acetylcholine receptor expressed in CHO cell membranes assessed as reduction in pIC50 for acetylcholine-induced inhibition of [3H]NMS binding by radioligand binding assay
[12] = biological target: T1, Muscarinic acetylcholine receptor M1 (Homo sapiens); assay: Displacement of [3H]NMS from human muscarinic M1 acetylcholine receptor expressed in CHO cell membranes by radioligand binding assay
[13] = biological target: T1, Muscarinic acetylcholine receptor M1 (Homo sapiens); assay: Partial agonist activity at human muscarinic M1 acetylcholine receptor expressed in CHO cells assessed as increase in IP1 accumulation at 10 uM incubated for 30 mins by FRET based HTRF assay relative to 100 uM acetylcholine; format: functional, cell-based
[14] = biological target: T1, Muscarinic acetylcholine receptor M1 (Homo sapiens); assay: Displacement of [3H]NMS from human muscarinic M1 acetylcholine receptor expressed in CHO cell membranes at 1 uM by radioligand binding assay
[15] = biological target: T1, Muscarinic acetylcholine receptor M1 (Homo sapiens); settings: CHO
Description: Displacement of [3H]NMS from human muscarinic M1 acetylcholine receptor expressed in CHO cell membranes assessed as equilibrium dissociation constant of dynamic ligand for active receptor binding pose by radioligand binding assay

[16] = biological target: T1, Muscarinic acetylcholine receptor M1 (Homo sapiens); settings: CHO; remark: listed apart in the source
Description: Displacement of [3H]NMS from human muscarinic M1 acetylcholine receptor expressed in CHO cell membranes assessed as equilibrium dissociation constant of dynamic ligand for inactive receptor binding pose by radioligand binding assay

[17] = biological target: T1, Muscarinic acetylcholine receptor M1 (Homo sapiens); assay: Partial agonist activity at human muscarinic M1 acetylcholine receptor expressed in CHO cells assessed as increase in IP1 accumulation at 1 uM incubated for 30 mins by FRET based HTRF assay relative to 100 uM acetylcholine; format: functional, cell-based
[18] = biological target: T1, Muscarinic acetylcholine receptor M1 (Homo sapiens); assay: Allosteric inhibition of [3H]NMS dissociation from human muscarinic M1 acetylcholine receptor expressed in CHO cell membranes assessed as half life of dissociation by radioligand binding assay
[19] = biological target: T1, Muscarinic acetylcholine receptor M1 (Homo sapiens); assay: Allosteric inhibition of [3H]NMS dissociation from human muscarinic M1 acetylcholine receptor expressed in CHO cell membranes assessed as […] in half life of dissociation by radioligand binding assay
[20] = biological target: T1, Muscarinic acetylcholine receptor M1 (Homo sapiens); assay: Partial agonist activity at human muscarinic M1 acetylcholine receptor expressed in CHO cells assessed as increase in IP1 accumulation at 10 uM incubated for 30 mins by FRET based HTRF assay in presence of 1 uM atropine; format: functional, cell-based

SMILES	Activity [1]	EC50 [2]	Kd [3]	Activity [8]	Activity [9]	other results
C[N+](C)(CC#CCOC1=NOCC1)CCCCCCNC(=O)c1cn(Cc2ccccc2)c2cc(Br)ccc2c1=O	inactive	15.5 nM	74.1 nM	–	–	–
COc1ccc2cc(Cn3cc(C(=O)O)c(=O)c4cccc(F)c43)ccc2c1	–	–	–	–	–	Emax [4]: 1%; Activity [5]: Active
O=C(NCCCCCCBr)c1cn(Cc2ccccc2)c2c(F)cccc2c1=O	–	–	–	inactive	inactive	pEC0.5 [6]: 6.15; inhibition [7]: 47%; inhibition [10]: inactive; inhibition [11]: Active; Imax [12]: 10 µM
CC[C@@H]1SC2(CCNCC2)NC1=O	–	–	–	–	–	Emax [13]: 12%
O=C(NCCCCCCBr)c1cn(Cc2ccccc2)c2cc(Cl)c(F)cc2c1=O	–	–	–	inactive	inactive	inhibition [14]: Active
O=C(NCCCCCCBr)c1cn(Cc2ccccc2)c2cc(Br)ccc2c1=O	–	–	–	inactive	inactive	inhibition [14]: Active
C[N+](C)(CC#CCOC1=NOCC1)CCCCCCNC(=O)c1cn(Cc2ccccc2)c2c(F)cccc2c1=O	inactive	178 nM	490 nM	–	–	pEC0.5 [6]: 6.1; inhibition [7]: 15%; inhibition [10]: inactive; inhibition [11]: Active; pKA [15]: 6.98; pKb [16]: 6.3
CCCCCCCCOc1ccc2cc(Cn3cc(C(=O)O)c(=O)c4cccc(F)c43)ccc2c1	–	–	–	–	–	Emax [17]: 1%; Activity [5]: Active
C[N+](C)(CC#CCOC1=NOCC1)CCCCNC(=O)c1cn(Cc2ccccc2)c2cc(Cl)c(F)cc2c1=O	inactive	32.4 nM	72.4 nM	–	–	–
C[N+](C)(C)CC#CCOC1=NOCC1	–	2.04 nM	2140 nM	–	–	–
C[N+](C)(CC#CCOC1=NOCC1)CCCCNC(=O)c1cn(Cc2ccccc2)c2cc(Br)ccc2c1=O	inactive	63.1 nM	141 nM	–	–	–
C[N+](C)(CC#CCOC1=NOCC1)CCCCCCNC(=O)c1cn(Cc2ccccc2)c2cc(Cl)c(F)cc2c1=O	inactive	302 nM	851 nM	–	–	–
O=C(NCCCCBr)c1cn(Cc2ccccc2)c2c(F)cccc2c1=O	–	–	–	inactive	inactive	pEC0.5 [6]: 5.9; inhibition [7]: 35%; inhibition [10]: inactive; inhibition [11]: Active; Imax [12]: 3 µM
CCCCCCCCN1CCC(n2c(=O)[nH]c3ccccc32)CC1	–	537 nM	–	–	–	pEC0.5 [6]: 5.94; inhibition [7]: 36%; T1/2 [18]: 8.9 min; fold change (FC) [19]: 3; Activity [5]: Active
COc1ccc(Cn2cc(C(=O)O)c(=O)c3ccccc32)cc1	–	–	–	inactive	Active	–
C[N+](C)(CC#CCOC1=NOCC1)CCCCCCNC(=O)c1cn(Cc2ccccc2)c2ccc(F)cc2c1=O	inactive	58.9 nM	151 nM	–	–	–
O=C(NCCCCBr)c1cn(Cc2ccccc2)c2cc(Br)ccc2c1=O	–	–	–	inactive	inactive	–
CC[C@@H]1SC2(CCNCC2)N(CCCOc2ccc3cc(Cn4cc(C(=O)O)c(=O)c5cccc(F)c54)ccc3c2)C1=O	–	–	–	–	–	Emax [13]: 55%; Activity [20]: inactive; Activity [5]: Active
O=C(NCCCCBr)c1cn(Cc2ccccc2)c2cc(Cl)c(F)cc2c1=O	–	–	–	inactive	inactive	–
CC[C@@H]1SC2(CCNCC2)N(CCCCCCCCOc2ccc3cc(Cn4cc(C(=O)O)c(=O)c5cccc(F)c54)ccc3c2)C1=O	–	60.3 nM	166 nM	–	–	Emax [13]: 61%; Activity [5]: Active
C[N+](C)(CC#CCOC1=NOCC1)CCCCNC(=O)c1cn(Cc2ccccc2)c2c(F)cccc2c1=O	inactive	57.5 nM	151 nM	–	–	pEC0.5 [6]: 6.04; inhibition [7]: 18%; inhibition [10]: inactive; inhibition [11]: Active; pKA [15]: 6.64; pKb [16]: 6.92
